Measured values: patent US20070032477A1, “Pteridine derivatives useful for making pharmaceutical compositions” (priority 2003, published 2007)

Experiments:
Type in all cases: in vivo
[1] = test system: TNF-α induced shock in C57BL/6 male mice; assay: Protection against a lethal dose of TNF-α
Experimental: A model of TNF-α induced shock in C57BL/6 male mice was performed as follows. Five animals from the control group received an intravenous administration of a lethal dose of TNF-α (10 μg) in the tail. Ten animals from the test group received three intraperitoneous injections of the pteridine derivative of example 17 (20 mg/kg/day) respectively 48 hours, 24 hours and immediately before an intravenous injection of TNF-α (10 μg).
Furthermore, all five mice from the control group died within 40 hours, the survival rate (80%) of mice that received the pteridine derivative of example 17 in addition to the TNF-α dose (10 μg) was quite substantial.

[2] = test system: B16BL/6 melanomasarcoma cells in C57BL/6 mice; assay: Inhibition of the metastasis of melanoma cells in mice; settings: for proportion of mice having metastasis: inguinal and/or para-aortic lymph nodes
Experimental: C57BL/6 mice were injected with 1.5×10^6 B16BL/6 melanomasarcoma cells subcutaneously in the foot path and were divided, three days later, into 4 groups: • a control 1 group of 6 mice receiving only vehicle 3 times a week; • a control 2 group of 5 mice receiving a lethal dose of TNF (15 μg, subcutaneously) 3 times a week; • a group 3 receiving the pteridine derivative of example 17 alone 3 times a week at 20 mg/kg • a group 4 of 7 mice receiving the pteridine derivative of example 17 in an amount of 20 mg/kg intraperitenously on days 3, 4, and 5 and also receiving TNF (15 μg, subcutaneously) on day 5. This combined treatment with TNF and the pteridine derivative of example 17 was continued for 2 weeks.
Reduction of tumor size is also true in mice of group 3, although to a lesser extent (198 mm^2).
All mice of control group 2 died within the very first days of treatment, whereas mortality was 3/7 in mice of group 4.
At the end of experiment, it was looked macroscopically at black metastasis in inguinal and/or para-aortic lymphoneuds in all tumor bearing groups of mice. The proportions of mice having metastasis were: • 4/5 mice in control group 1, • 0/4 mice in group 4, and • 2/4 in group 3.

[3] = test system: LPS-induced shock in C3H mice; assay: Model of protection against septic shock (LPS); settings: 100 μg LPS i.p., 20 mg/kg/day i.p. at time of injection and 24 hours later
Experimental: As a control group, 4 sham treated (saline injection) C3H mice being injected intraperitoneously with 100 μg lipopolysaccharide (hereinafter LPS) per mouse, all died within 1 to 3 days after injection.

[4] = test system: TNBS-induced colitis in C57 BL/6 mice; assay: Trinitrobenzenesulfonate-induced colitis test in mice (Example 209)
Experimental: C57 BL/6 mice (4-5 weeks) were obtained from M&B (Denmark), bred under standard pathogen-free conditions and maintained in the certified animal facility of the University Hospital Gasthuisberg, Catholic University of Leuven (Belgium). Experiments were approved by the local Ethical Committee of Animal Experimentation. Mice were sensitized twice 10 days and 5 days before rectal challenge. For sensitization, a 2×2 cm field of the abdominal skin was shaved, and 100 μl of 5 mg trinitrobenzenesulfonate (hereinafter referred as TNBS) in 50% ethanol solution was applied. On the day of challenge, mice were first lightly anesthetized with metofane. Subsequently TNBS (1 mg in 50% ethanol) was administered per rectum via a round-tip needle equipped with a 1-ml syringe. The tip of the needle was inserted so that the tip was about 3.5 to 4 cm proximal to the anal verge and TNBS was injected with a total volume of 100 μl. To ensure distribution of TNBS within the entire colon and cecum, mice were held in a vertical position for 1 minute after the injection.
The compound of example 176 (2-amino-6-(3,4-dimethoxyphenyl)-4-[N-(4-methyl-phenyl)-piperazin-1-yl]pteridine) was given to the mice by daily gavage at the dose of 20 mg/kg (400 μg in 100 μl H2O). Control mice were treated with 100 μl H2O only. Body weights of all animals were recorded daily in order to follow the development of inflammatory colitis over a period of 10 days.
Both macroscopic and microscopic histology evaluations were performed as follows. Mice were sacrificed at day 2 by cervical […], the colon was excised and was immediately examined visually, and damage was scored on a 0-12 scale. Colon sections were then fixed in 6% formalin and embedded in paraffin, cut into sections, and then stained with hematoxylin and eosin. Stained sections were examined for evidence of colitis using as criteria the presence of cell infiltration, elongation and/or distortion of crypts, crypt abscesses, reduction in goblet cell number, frank ulceration, and oedema formation.
MPO activity was measured as follows. Two days after intracolonic injection of TNBS, 50 mg colon was removed, homogenised and sonicated on ice. Samples were frozen in liquid nitrogen and subsequently thawed in a water bath at 37° C., each step lasted 3 minutes and the procedure was repeated for two cycles. After centrifugation, an aliquot of the supernatant was then allowed to react with a solution of tetra-methyl-benzidine (1.6 mM) and 0.1 mM H2O2. The rate of change in absorbance was measured spectrophotometrically at 460 nm. MPO activity was defined as the quantity of enzyme degrading 1 μmole of peroxide/minute at 37° C. and was expressed in units per gram weight of wet tissue. Sample enzyme activity was measured from a standard curve of known MPO unit activity (assay sensitivity 5×10^−7 units per well).
Quantitative Reverse Transcriptase (RT)-PCR for cytokine mRNA was performed as follows: part of the colon tissues, removed on day 2 after TNBS application, was immediately frozen in liquid nitrogen after dissection and stored at −70° C. until extraction of total RNA using a method well known in the art. A constant amount of 1 μg of total RNA was used for oligo-(dT)-primed cDNA synthesis (Ready-to-go-kit, commercially available from Pharmacia, Sweden). After 90 minutes at 37° C., the reverse transcriptase was inactivated by incubating the cDNA samples for 5 minutes at 95° C. The amount of cDNA was quantified by real-time RT-PCR using specific primers for β-actin and TNF, with the ABI Prism 7700 Sequence Detectin System (SDS) commercially available from Applied Biosystems (California). PCR was performed in a total volume of 25 μl, containing 5 μl cDNA and 20 μl mix with the TaqMan® Universal PCR Master Mix (2×) (Applied Biosystems) combined with 300 nM of the primer and 100 nM of the probe. […]

[5] = group 4: example 17 20 mg/kg i.p. combined with TNF 15 μg s.c.
[6] = daily gavage 20 mg/kg, versus control mice

| SMILES | survival rate ([1]; TNF-α 10 μg i.v., 20 mg/kg/day i.p. three injections, within 40 hours) | body temperature ([1]; followed for 40 hours, 20 mg/kg/day i.p. 48 h, 24 h and immediately before TNF-α 10 μg i.v.) | tumor size ([2]; group 3: example 17 alone 3 times a week at 20 mg/kg) | proportion of mice having metastasis ([2]; group 3: example 17 alone) | mortality [2, 5] | tumor size [2, 5] | proportion of mice having metastasis ([2]; group 4: example 17 combined with TNF) | protection from acute shock related mortality [3] | recovery of original body weight earlier than control mice ([4]; daily gavage 20 mg/kg) | microscopic score ([4]; daily gavage 20 mg/kg, day 2) | average macroscopic score ([4]; daily gavage 20 mg/kg, day 2, 0-12 scale) | tissue MPO activity in colon ([4]; daily gavage 20 mg/kg, two days after TNBS) | decrease of tissue MPO activity [4, 6] | reduction in average macroscopic score [4, 6] | mRNA for other cytokines (IFN-γ and IL-18) in colon ([4]; day 2, compared to control mice) | cytokine mRNA level for TNF in colon ([4]; day 2, ratio to β-actin multiplied by 10^6) | Anti-TNBS antibody (IgG1 and IgG2a) levels ([4]; serum day 10, compared to control mice) |
| --- | --- | --- | --- | --- | --- | --- | --- | --- | --- | --- | --- | --- | --- | --- | --- | --- | --- |
| COc1ccc(-c2cnc3nc(N)nc(N4CCN(C(=O)COc5ccccc5)CC4)c3n2)cc1OC [Example 17, 2-amino-4-[(N-phenoxyacetyl)-piperazin-1-yl]-6-(3,4-dimethoxy-phenyl)pteridine] | 80% | body temperature of control mice dropped significantly when compared to mice receiving the test compound | 198 mm^2 | 2/4 | 3/7 | 120 mm^2 | 0/4 | all mice were protected from acute shock related mortality | – | – | – | – | – | – | – | – | – |
| COc1ccc(-c2cnc3nc(N)nc(N4CCN(c5ccc(C)cc5)CC4)c3n2)cc1OC [Example 176, 2-amino-6-(3,4-dimethoxyphenyl)-4-((4-methylphenyl)-piperazin-1-yl)pteridine] | – | – | – | – | – | – | – | – | at least 4 days | 5.7±0.6 | 6.2±0.4 | 6.7±1.4 U/g | 2 fold | 30% | no difference | 18.1±8.5 | similar |
